Laboratory results: publication PMC7352759, “S(+)-(2E)-N-(2-Hydroxypropyl)-3-Phenylprop-2-Enamide (KM-568): A Novel Cinnamamide Derivative with Anticonvulsant Activity in Animal Models of Seizures and Epilepsy” (International Journal of Molecular Sciences, 2020)

Tests used:
rats = assay: Subcutaneous metrazol seizure threshold test (scMET), rats; assay type: in vivo; conditions: for ED50: Rattus norvegicus; for scMET Results (protected/tested animals): i.p.
Procedure: In vivo activity testing was performed at the Epilepsy Branch, National Institute of Neurological Disorders and Stroke, National Institutes of Health (NIH, Bethesda, USA) within the Anticonvulsant Screening Program (ASP) (currently known as the Epilepsy Therapy Screening Program (ETSP)). Pharmacological evaluation was planned and performed in accordance with the Institute of Laboratory Resources polices on the humane care of laboratory animals and approved by the University of Utah’s Institutional Animal Care and Use Committee (IACUC). All testing protocols were previously published as well as they are available on the NIH website. In the tests, albino mice Carworth Farms No.1 (CF-1) (Charles River), C57/Bl6 mice (Charles River), Frings mice (University of Utah) or male rats Sprague–Dawley (Charles River) were used. All animals were housed, fed, and handled in a manner consistent with the recommendations in the National Council Publication, ‘Guide for the Care and Use of Laboratory animals’ [51]. The tested compound was suspended in 0.5% methylcellulose.
The tested compound was administered i.p. or p.o. at certain dose. Then, subcutaneous injection of metrazol (syn. pentetrazol, pentylenepentetrazol) dissolved in 0.9% NaCl at the dose of 85 mg/kg (mice) or 70 mg/kg (rats) was performed to induce seizures. Protection was scored if there was not an observed episode of clonic spasm of at least 5 sec.

[1] = tested on: LTG-resistant amygdala kindled Sprague–Dawley rats; assay: Lamotrigine (LTG) resistant amygdala kindled seizure model in rats; assay type: in vivo; conditions: 0.25 h
Procedure: Anesthetized male Sprague–Dawley rats (250–300 g) were surgically implanted with an electrode into the left amygdala. After a one-week recovery period, kindling was initiated. A suprathreshold stimulus (200 µA) was delivered daily until all animals display stage 4–5 seizures. Lamotrigine at 5 mg/kg i.p. was also administered daily during kindling acquisition. One week after all animals were kindled, the animals received a challenge dose of lamotrigine (30 mg/kg, i.p.) to confirm LTG-resistance. On the 4th day, compound KM-568 was administered i.p. at the doses 20, 40, and 80 mg/kg. Fifteen minutes after administration, rats were challenged with the kindling stimulus. Results were provided as seizure score (according to Racine scale, protection defined as less than 3) and after discharge duration (in sec).

[2] = Ames microplate format (MPF) assay, TA98; conditions: Salmonella typhimurium
Text: The Ames microplate format (MPF) mutagenicity assay (Xenometrix, Allschwil, Switzerland) was used to test KM-568 mutagenicity. Growth, exposure, and indicator media, positive control chemicals, and four Salmonella typhimurium strains TA98, TA100, TA1535 and TA1537 were included in the kit. TA100 and TA1535 strains detect base substitution mutations, whereas TA98 and TA1537 indicate frameshift mutations. The strains of bacteria included in a kit are in compliance with the Organization for Economic Cooperation and Development (OECD) 471 Guideline for Testing of Chemicals.
The assay is a liquid microplate modification of the traditional Salmonella test. During the procedure, bacteria are exposed to different concentrations of a test compound for 90 min in a medium containing sufficient histidine to support cell divisions. Then, the cultures are diluted in a pH indicator medium lacking histidine and aliquoted into 48 wells of a 384-well plate. Within 2 days, bacteria that have undergone reversion to amino acid prototrophy will form colonies. Products of bacteria metabolism reduce pH of the medium, changing the color of wells from purple to yellow.
The test procedure provided by Xenometrix and described in detail elsewhere was followed. Bacterial strains were grown overnight (14–16 h) in exposure medium in a shaker incubator and then exposed to KM-568 in 24-well plates for 90 min at 37 °C with agitation. Final KM-568 concentrations in the assay were 0.1, 0.2, and 0.5 mM. After preincubation, the cultures were diluted in the indicator medium and the contents of each 24-well culture were transferred to 48 wells on a 384-well plate and incubated further for 48 h at 37 °C without agitation. After the exposure, the number of wells containing bacteria was scored for yellow wells. […] Pure DMSO was used as a negative control. All doses were performed in triplicate.
The fold increase of revertants relative to the solvent control was determined by dividing the mean number of positive wells at each dose by the solvent control at baseline. The solvent control at baseline was calculated as the mean number of positive wells in the solvent control plus one standard deviation (SD). When an increase of more than twofold relative to the baseline at more than one dose with a dose–response was observed, the sample was classified as positive, whereas when no response > 2 times the baseline and no dose–response was stated, the sample was classified as negative.

H9c2 cells = assay: MTT cytotoxicity assay, H9c2; assay type: cell-based, rat
Procedure: Human liver cancer HepG2 cell line (ATCC HB8065) and rat cardiomyoblast cell line H9c2 (ATCC-CRL1446) were purchased in ATCC (American Type Culture Collection, Manassas, VA, USA). The cells were cultured in standard conditions (37 °C, 5% CO2) in EMEM medium (ATCC, Manassas, VA, USA), supplemented with 10% FBS (Gibco, Waltham, MA, USA) and antibiotics (1% streptomycin/penicillin mixture, Sigma–Aldrich, Darmstadt, Germany) or DMEM high glucose (ATCC, Manassas, VA, USA) supplemented with 10% FBS (Gibco, Waltham, MA, USA) and antibiotics (1% streptomycin/penicillin mixture, Sigma–Aldrich, Darmstadt, Germany), respectively.
The MTT colorimetric assay was used to determine the cytotoxic effects of the KM-568 and DOX (Sigma–Aldrich, Darmstadt, Germany). Cells were seeded at a density of 1 × 10^4 in 96-well plates. Following overnight culture, the cells were then treated with KM-568 and DOX in concentration range 0.1–200 µM (hepatocytotoxicity) or 0.1–100 µM (cardiocytotoxicity). Following cell exposure to each drug for 24 h in 96 well plates, 10 µL MTT reagent (Sigma–Aldrich, Darmstadt, Germany) was added to each well; after 4 h of incubation (37 °C, 5% CO2), the medium was aspirated and formazan produced in cells appeared as dark crystals in the bottom of the wells. […] Then, absorbance was measured at 570 nm on a multi-well plate reader (Spectra Max iD3, Molecular Devices, San Jose, CA, USA). […]

C[C@H](O)CNC(=O)/C=C/c1ccccc1 [KM-568, S(+)-(2E)-N-(2-hydroxypropyl)-3-phenylprop-2-enamide]
ED50 (rats; ip, 0.25 h, 95% confidence interval in parentheses): 41.7 mg/kg | ED50 (rats; po, 1.0 h, doses 62.5, 125.0, 250.0 mg/kg): > 250 mg/kg | scMET Results (protected/tested animals) (rats; 30 mg/kg, 0.25 h): 1/8 | scMET Results (protected/tested animals) (rats; 45 mg/kg, 0.25 h): 4/8 | scMET Results (protected/tested animals) (rats; 60 mg/kg, 0.25 h): 8/8 | scMET Results (protected/tested animals) (rats; 95 mg/kg, 0.25 h): 8/8 | ED50 ([1]; Rattus norvegicus, ip): 58.6 mg/kg | Results (protected/tested animals; protection = Racine score <3) ([1]; i.p., 20 mg/kg): 0/7 | Seizure Duration ± SD ([1]; i.p., 20 mg/kg): 140 ± 17.55 s | Seizure Score ± SEM ([1]; i.p., 20 mg/kg): 5.0 ± 0.0 | Results (protected/tested animals; protection = Racine score <3) ([1]; i.p., 40 mg/kg): 2/7 | Seizure Duration ± SD ([1]; i.p., 40 mg/kg): 94.71 ± 8.72 s | Seizure Score ± SEM ([1]; i.p., 40 mg/kg): 3.86 ± 0.74 | Results (protected/tested animals; protection = Racine score <3) ([1]; i.p., 80 mg/kg): 5/7 | Seizure Duration ± SD ([1]; i.p., 80 mg/kg): 56.57 ± 12.34 s | Seizure Score ± SEM ([1]; i.p., 80 mg/kg): 2.86 ± 0.63 | ED50, lamotrigine-resistant amygdala kindled rat model ([1]; i.p.): 58.69 (38.09–120.15) mg/kg | fold induction at 90 min, 0.1 mM [2]: 0.1 | fold induction at 90 min, 0.2 mM [2]: 0.9 | fold induction at 90 min, 0.5 mM [2]: 0.7 | percent of living cells (H9c2 cells; H9c2, 24 h incubation with 100 µM): ~100% | cytotoxic effect, MTT assay (H9c2 cells; H9c2, up to 100 µM, 24 h): no cytotoxic effect
